Laboratory results as given in patent US12331324B2, “Versatile peroxidases and uses thereof” (Yeda Research and Development Co. Ltd., priority 2021, dated 2025).
Read-outs that look alike come from different tables or passages of the source.

How the values were obtained:
[1] = test system: Ganoderma sp. 10597_SS1 versatile peroxidase VP8, designed variant 8H, SEQ ID NO: 2 (wild type SEQ ID NO: 5; mutations R4P, M5S, E34T, G59A, T65W, A67Q, V85I …); format: biochemical; details: for Kcat / Kcat/KM / Km: 25° C.
Description: (§1) VPs production and purification. A colony from S. cerevisiae clone containing the VP gene (5H, 8H, 11H, VPL_R4, VPL_2-1B) was picked from an SC drop-out plate, inoculated in 25 mL minimal medium in a 250 flask, and incubated for 48 hours at 30° C. and 225 rpm. An aliquot of cells was removed and used to inoculate 100 mL of minimal medium in a 1 L flask to an OD600 nm of 0.25-0.30, under the same conditions. The cells completed two growth phases (8-10 hours, reaching OD600 nm˜1-1.5), then the expression medium (450 mL) was inoculated with 50 mL of the pre-culture in a 2 L flask (OD600 nm˜0.1). Cells were incubated for a further ˜60 hours at 30° C. and 225 rpm. Thereafter, cells were centrifuged at 6000 g for 15 min at 4° C., and the supernatant was collected and filtered with a 0.2 μm filter bottle.
(§2) Filtrates were subjected to fractional precipitation with ammonium sulfate in two steps: first cut of 50%, followed by centrifugation and elimination of the precipitates, and the second cut of 70%. Buffer A was used to dissolve the pellet, and the dissolved protein solution was shaken overnight at 4° C. for maximal recovery. The dissolved fraction was then centrifuged, filtrated, concentrated, and subjected to overnight dialysis against buffer A. Filtered fractions of the VP proteins after dialysis were uploaded into a HiTrap™ Q HP Column (GE Healthcare Bio-Sciences AB, Uppsala, Sweden) pre-equilibrated with buffer A, through ÄKTA pure protein purification system (GE Healthcare Bio-Sciences AB). Proteins were eluted in a two-step linear gradient from 0 to 1 M NaCl, at a flow rate of 1 ml/min: the first phase of 0-25% over 15 column volumes (75 min) and second phase of 25-100% over 2 column volumes (10 min). The fractions of the peak with the highest VP activity (and absorption at 407 nm) were pooled, concentrated, and dialyzed against 20 mM piperazine buffer pH=5.5 and 150 mM NaCl (buffer B). Protein fractions were then uploaded onto a Superdex 75 Increase 10/300 GL (GE Healthcare Bio-Sciences AB) through the ÄKTA pure system pre-equilibrated with buffer B. The fractions of the peak with the highest VP activity (and absorption at 407 nm) were pooled and dialyzed against buffer A. Pure protein samples were stored at 4° C. Protein concentration was determined using the BCA assay with bovine serum albumin as a standard.
(§3) pH activity profiles. For purified 5H, 8H, 11H, and R4, 20 μL protein samples (diluted in buffer A) were transferred into activity 96 plates (in the case of VA and MnSO4, UV-Star plates; Greiner Bio-One GmbH, Kremsmünster, Austria) and then, 180 μL of the reaction mixture were added to each row in the plate, and absorption at the appropriate wavelength (substrate-dependent) was recorded immediately in a kinetic mode in a plate-reader at 25° C. The reaction mixtures contained a specific substrate in 100 mM citrate-phosphate-borate buffer (pH 2, 3, 3.5, 4, 5, 6, 7, 8) and 0.1 mM H2O2. The activities were recorded in triplicate. The following substrate concentrations and absorption wavelengths were used: ABTS: 2 mM, 418 nm; DMP: 5 mM, 469 nm; RB5: 0.05 mM, 598 nm; VA: 30 mM, 310 nm. For manganese, the reaction mixtures contained 60 mM MnSO4 in 100 mM sodium tartrate buffer (pH 3, 3.5, 4, 4.5, 5) and 0.1 mM H2O2, and the Mn^3+-tartrate complex absorption was read at 238 nm. For each protein and substrate, the activities were normalized to the activity at optimal pH for residual activity calculations. Each activity assay was conducted in triplicate.
(§4) Kinetic parameters. Steady-state kinetics were determined for 5H, 8H, 11H and R4, by measuring the activity (initial rates) in increasing concentrations of the substrate, and the KM and Kcat values were calculated by fitting the results to the Michaelis-Menten model (V0=KcatES/(KM+S)).

[2] = target: Pleurotus eryngii versatile peroxidase VPL, variant R4 (VPL-R4, previously evolved for expression; wild type SEQ ID NO: 8) (Pleurotus eryngii, UniProt O94753); format: biochemical; details: 25° C.
Sequence of Pleurotus eryngii versatile peroxidase VPL, variant R4 (VPL-R4, previously evolved for expression; wild type SEQ ID NO: 8) (Pleurotus eryngii, UniProt O94753) (O94753 31-361, change not shown): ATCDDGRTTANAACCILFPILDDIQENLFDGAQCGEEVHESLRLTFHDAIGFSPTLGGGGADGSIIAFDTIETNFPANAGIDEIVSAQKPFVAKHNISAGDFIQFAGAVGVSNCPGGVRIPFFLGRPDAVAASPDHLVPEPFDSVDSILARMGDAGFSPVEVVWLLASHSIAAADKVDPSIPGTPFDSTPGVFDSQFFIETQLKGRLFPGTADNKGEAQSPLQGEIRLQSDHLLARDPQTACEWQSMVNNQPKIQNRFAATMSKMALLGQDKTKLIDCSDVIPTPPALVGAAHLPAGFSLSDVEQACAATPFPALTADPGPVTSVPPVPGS
Description: as §1, §2, §3, §4

[3] = test system: Pleurotus eryngii versatile peroxidase VPL, variant R4 (VPL-R4, previously evolved for expression; wild type SEQ ID NO: 8); format: biochemical
Description: as §1, §2, §3, §4

[4] = test system: Pleurotus ostreatus versatile peroxidase VP5, designed variant 5H, SEQ ID NO: 1 (wild type SEQ ID NO: 4; mutations A11S, V15T, A17S, A19E, P26D, D38G, A40Q …)
Description: as §1
Filtrates were subjected to fractional precipitation with ammonium sulfate in two steps: first cut of 50%, followed by centrifugation and elimination of the precipitates, and the second cut of 70%. […] Protein concentration was determined using the BCA assay with bovine serum albumin as a standard.
pH activity profiles. […] The activities were recorded in triplicate. […] For manganese, the reaction mixtures contained 60 mM MnSO4 in 100 mM sodium tartrate buffer (pH 3, 3.5, 4, 4.5, 5) and 0.1 mM H2O2, and the Mn^3+-tartrate complex absorption was read at 238 nm. […]

[5] = high efficiency site, optimum pH, 0.2 mM H2O2
[6] = low efficiency site, optimum pH, 0.2 mM H2O2
[7] = high efficiency site, optimum pH, 1 mM H2O2
[8] = low efficiency site, optimum pH, 1 mM H2O2
[9] = H2O2 kinetics with 3 mM ABTS, optimum pH for ABTS
[10] = H2O2 kinetics with 2 mM ABTS, optimum pH for ABTS
[11] = VA, RB5, optimum pH, 0.2 mM H2O2

## CCn1c(=NN=c2sc3cc(S(=O)(=O)O)ccc3n2CC)sc2cc(S(=O)(=O)O)ccc21 [ABTS, 2,2′-azino-bis (3-ethylbenzothiazoline-6-sulfonic acid)]
[1]; [5]
  Kcat: 7.8 ± 0.3 s⁻¹
  Kcat/KM: 1.55e+06 ± 260000 M⁻¹ s⁻¹
  Km: 5 ± 0.8 µM
[1]; [6]
  Kcat: 28.2 ± 0.9 s⁻¹
  Kcat/KM: 35400 ± 4400 M⁻¹ s⁻¹
  Km: 795 ± 96 µM
[2]; [7]
  Kcat: 1.3 ± 0.1 s⁻¹
  Kcat/KM: 3,300 ± 700 sec^−1 mM^−1
  Km: 0.39 ± 0.08 µM
[2]; [8]
  Kcat: 400 ± 21 s⁻¹
  Kcat/KM: 405 ± 49 s⁻¹ mM⁻¹
  Km: 987 ± 107 µM

## COc1cccc(OC)c1O [DMP, 2,6-dimethoxyphenol]
[1]; 8H relative to the other VPs (5H, 11H, R4)
  heme-dependent affinity for DMP, fold higher relative to the other VPs: at least 70 fold
[1]; [5]
  Kcat: 2.2 ± 0.1 s⁻¹
  Kcat/KM: 94600 ± 8200 M⁻¹ s⁻¹
  Km: 22.9 ± 1.8 µM
[1]; [6]
  Kcat: 3.6 ± 0.1 s⁻¹
  Kcat/KM: 22100 ± 1600 M⁻¹ s⁻¹
  Km: 164 ± 12 µM
[2]; [7]
  Kcat: 0.74 ± 0.05 s⁻¹
  Kcat/KM: 542 ± 113 s⁻¹ mM⁻¹
  Km: 1.4 ± 0.3 µM
[2]; [8]
  Kcat: 132 ± 7 s⁻¹
  Kcat/KM: 8.2 ± 1.0 s⁻¹ mM⁻¹
  Km: 16100 µM

## OO [H2O2, Hydrogen peroxide]
[3]
  H2O2 affinity, fold lower than seen in 11H: 12 fold
[1]; 8H relative to 11H
  H2O2 affinity, fold lower than seen in 11H: 2 fold
[1]; [9]
  Kcat: 12.1 ± 0.6 s⁻¹
  Kcat/KM: 135000 ± 21000 M⁻¹ s⁻¹
  Km: 89.7 ± 12.9 µM
[2]; [10]
  Kcat: 230 ± 9 s⁻¹
  Kcat/KM: 503 ± 61 s⁻¹ mM⁻¹
  Km: 457 ± 53 µM
[4]; 5H relative to 11H
  H2O2 affinity, fold lower than seen in 11H: 5 fold

## Nc1c(N=Nc2ccc(S(=O)(=O)CCOS(=O)(=O)O)cc2)c(S(=O)(=O)O)cc2cc(S(=O)(=O)O)c(N=Nc3ccc(S(=O)(=O)CCOS(=O)(=O)O)cc3)c(O)c12 [RB5, reactive black 5]
[1]; [11]
  Kcat: 1.1 ± 0.1 s⁻¹
  Kcat/KM: 65000 ± 7200 M⁻¹ s⁻¹
  Km: 17.3 ± 1.7 µM
[2]; VA, RB5, optimum pH, 1 mM H2O2
  Kcat: 0.63 ± 0.02 s⁻¹
  Kcat/KM: 487 ± 51 s⁻¹ mM⁻¹
  Km: 1.3 ± 0.1 µM

## COc1ccc(CO)cc1OC [VA, veratryl alcohol]
[1]; [11]
  Kcat: 5.5 ± 0.1 s⁻¹
  Kcat/KM: 550 ± 20 M⁻¹ s⁻¹
  Km: 10100 µM
[2]; VA, RB5, optimum pH, 1 mM H2O2
  Kcat: 5.4 ± 0.4 s⁻¹
  Kcat/KM: 0.7 ± 0.1 s⁻¹ mM⁻¹
  Km: 7400 µM
[4]; 5H relative to the next best enzyme
  affinity for VA relative to the next best enzyme: more than an order of magnitude higher affinity
